The test system of test [1] is trained panelists. Briefly: Sensory assessment: cooling intensity of inventive amides in 5% sugar solution compared to FEMA 4809. The test is classed as in vivo, human. Conditions: 20 ppm in 5% sugar solution; scale 1 (very weak) to 9 (very strong); n=10 to 11. The procedure:
[…] What were assessed here were initial cooling intensity, overall cooling intensity and long-lasting action on a scale from 1 (very weak) to 9 (very strong).

For test [2], the system named is oral cavity of trained panelists. Kind of test: Time-intensity profile of cooling after 40 s mouth rinse with sample solution. For cooling intensity: unit not given here. The test is classed as in vivo, human. The note with it: for Cooling intensity: 40 s mouth rinse. The method, then: To establish a time-intensity profile, the oral cavity of trained panelists (n=8 to 11) was rinsed for 40 seconds with a mouthful of a sample solution (2 ppm of FEMA 4809 or 50 ppm of FEMA 4496 or 50 ppm of 1) to 5)). Subsequently, the cooling intensity perceived was assessed at defined time intervals using a scale.

[3] abbreviates: time 0 sec; 2 ppm FEMA 4809, 50 ppm FEMA 4496, 50 ppm 1) to 5).
[4] abbreviates: time 40 sec; 2 ppm FEMA 4809, 50 ppm FEMA 4496, 50 ppm 1) to 5).
The mark [5] stands for this setting: time 70 sec; 2 ppm FEMA 4809, 50 ppm FEMA 4496, 50 ppm 1) to 5).
Where [6] appears, read: time 100 sec; 2 ppm FEMA 4809, 50 ppm FEMA 4496, 50 ppm 1) to 5).
The mark [7] stands for this setting: time 130 sec; 2 ppm FEMA 4809, 50 ppm FEMA 4496, 50 ppm 1) to 5).
Setting [8] is: time 160 sec; 2 ppm FEMA 4809, 50 ppm FEMA 4496, 50 ppm 1) to 5).
[9] abbreviates: time 190 sec; 2 ppm FEMA 4809, 50 ppm FEMA 4496, 50 ppm 1) to 5).
[10] abbreviates: time 220 sec; 2 ppm FEMA 4809, 50 ppm FEMA 4496, 50 ppm 1) to 5).
Where [11] appears, read: time 250 sec; 2 ppm FEMA 4809, 50 ppm FEMA 4496, 50 ppm 1) to 5).
The mark [12] stands for this setting: time 280 sec; 2 ppm FEMA 4809, 50 ppm FEMA 4496, 50 ppm 1) to 5).
Setting [13] is: time 310 sec; 2 ppm FEMA 4809, 50 ppm FEMA 4496, 50 ppm 1) to 5).
The mark [14] stands for this setting: time 340 sec; 2 ppm FEMA 4809, 50 ppm FEMA 4496, 50 ppm 1) to 5).
Where [15] appears, read: time 640 sec; 2 ppm FEMA 4809, 50 ppm FEMA 4496, 50 ppm 1) to 5).
Setting [16] is: time 940 sec; 2 ppm FEMA 4809, 50 ppm FEMA 4496, 50 ppm 1) to 5).
The mark [17] stands for this setting: time 1240 sec; 2 ppm FEMA 4809, 50 ppm FEMA 4496, 50 ppm 1) to 5).

In test [1], `CSCCN(C(=O)/C=C/c1ccc(C)cc1)c1ccccn1` [(E)-N-(2-methylsulfanylethyl)-3-(p-tolyl)-N-(2-pyridyl)prop-2-enamide] came in with an Initial cooling effect of 4, a Long-lasting action of 5.3 and an Overall cooling intensity of 5.7.
For `Cc1ccc(/C=C/C(=O)N(c2ccccc2)C2CCOC2)cc1` (stereo not shown) [(E)-N-phenyl-3-(p-tolyl)-N-tetrahydrofuran-3-ylprop-2-enamide] the same measures were 4.3, 6.1 and 5.7.
Consider `CCNC(=O)C1CC(C)CCC1C(C)C` (stereo not shown) [WS3, N-ethylmenthane-3-carboxamide], for which the Cooling intensity in test [2] (setting [3]) is 0; in test [2] (setting [4]), 4.3; in test [2] (setting [5]), 4.3; in test [2] (setting [6]), 4.1; in test [2] (setting [7]), 3.7; in test [2] (setting [8]), 3.4. Moreover, the Cooling intensity is reported as 3.1 in test [2] (setting [9]); 2.9 in test [2] (setting [10]); 2.8 in test [2] (setting [11]); 2.4 in test [2] (setting [12]); 2.3 in test [2] (setting [13]); 2.1 in test [2] (setting [14]). The Cooling intensity in test [2] (setting [15]) stood at 1.2; in test [2] (setting [16]), 0.5; in test [2] (setting [17]), 0.3.
With `CSCCN(C(=O)/C=C/c1ccc2c(c1)OCO2)c1ccccn1` [5), (E)-3-(1,3-benzodioxol-5-yl)-N-(2-methylsulfanylethyl)-N-(2-pyridyl)prop-2-enamide], the Cooling intensity in test [2] (setting [3]) worked out at 0.0; in test [2] (setting [4]), 5.7; in test [2] (setting [5]) it was 6.2; in test [2] (setting [6]), 6.0; in test [2] (setting [7]) it was 5.6; in test [2] (setting [8]), 5.6. The Cooling intensity in test [2] (setting [9]) worked out at 5.2; in test [2] (setting [10]), 5.0; in test [2] (setting [11]), 4.9; in test [2] (setting [12]), 4.6; in test [2] (setting [13]) it was 4.5; in test [2] (setting [14]), 4.3. Also, the Cooling intensity came to 3.1 in test [2] (setting [15]), 1.9 in test [2] (setting [16]) and 1.1 in test [2] (setting [17]).
`CC1CCC(C(C)C)C(C(=O)Nc2ccc(CC#N)cc2)C1` (stereo not shown) [FEMA 4496]: the Cooling intensity in test [2] (setting [3]) was 0; in test [2] (setting [4]), 1.9; in test [2] (setting [5]) it was 2.3; in test [2] (setting [6]), 2.4; in test [2] (setting [7]), 2.3; in test [2] (setting [8]), 2.3. Further, the Cooling intensity in test [2] (setting [9]) was determined as 2.3; in test [2] (setting [10]), 2.2; in test [2] (setting [11]), 2.2; in test [2] (setting [12]), 2.2; in test [2] (setting [13]) it was 2.1; in test [2] (setting [14]), 2.1. The results for the Cooling intensity in test [2] (setting [15]), in test [2] (setting [16]) and in test [2] (setting [17]) were 2.0, 1.5 and 1.2, respectively. Also, the “Onset of cooling activity” value in test [2] (time-intensity profile, with respect to WS3) is given as “distinctly retarded onset of the cooling action”.
In the case of `Cc1ccc(/C=C/C(=O)N(c2ccccn2)C2CCSC2)cc1` (stereo not shown) [3), (E)-3-(p-tolyl)-N-(2-pyridyl)-N-tetrahydrothiophen-3-ylprop-2-enamide], the Cooling intensity worked out at 0.0 in test [2] (setting [3]); 4.0 in test [2] (setting [4]); 4.0 in test [2] (setting [5]); 4.0 in test [2] (setting [6]); 3.9 in test [2] (setting [7]); 3.7 in test [2] (setting [8]). Besides, the Cooling intensity in test [2] (setting [9]) amounted to 3.7; in test [2] (setting [10]), 3.5; in test [2] (setting [11]) it was 3.4; in test [2] (setting [12]), 3.3; in test [2] (setting [13]), 3.2; in test [2] (setting [14]), 3.2. Also, the Cooling intensity in test [2] (setting [15]) was 2.2; in test [2] (setting [16]), 1.3; in test [2] (setting [17]) it was 0.7.
